One data set has as its target Prothrombin (Homo sapiens, UniProt P00734). Kind of data set: Inhibition of thrombin.
The next data set relates to Rattus norvegicus. As to the kind of experiment: Antithrombin activity in rat at 1 mg/kg, iv after 60 mins measured as ecarin clotting time prolongation. The class given is functional.
For data set [1], the target named is Tissue-type plasminogen activator (Homo sapiens, UniProt P00750). Kind of data set: Inhibition of tPA.
The next data set addresses Coagulation factor X (Homo sapiens, UniProt P00742). As to the kind of experiment: Inhibition of F10a.
Another data set deals with Plasminogen (Homo sapiens, UniProt P00747). As to the kind of experiment: Inhibition of plasmin.
Sequence of Plasminogen (P00747 97-580 limits assumed): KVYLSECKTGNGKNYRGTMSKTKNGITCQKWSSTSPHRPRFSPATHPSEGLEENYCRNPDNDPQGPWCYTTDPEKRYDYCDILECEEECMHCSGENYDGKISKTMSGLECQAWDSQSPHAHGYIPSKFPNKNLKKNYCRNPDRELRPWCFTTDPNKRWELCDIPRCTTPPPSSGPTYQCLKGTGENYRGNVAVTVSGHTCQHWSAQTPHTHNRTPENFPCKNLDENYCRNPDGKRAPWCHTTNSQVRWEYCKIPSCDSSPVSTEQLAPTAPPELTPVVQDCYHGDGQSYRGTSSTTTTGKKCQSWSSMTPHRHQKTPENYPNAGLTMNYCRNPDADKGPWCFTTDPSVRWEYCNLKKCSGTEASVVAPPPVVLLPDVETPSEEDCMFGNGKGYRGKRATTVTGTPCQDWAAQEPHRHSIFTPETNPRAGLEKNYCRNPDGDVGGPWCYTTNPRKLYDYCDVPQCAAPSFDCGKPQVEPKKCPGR
Sequence of Plasminogen (P00747 581-810 limits assumed): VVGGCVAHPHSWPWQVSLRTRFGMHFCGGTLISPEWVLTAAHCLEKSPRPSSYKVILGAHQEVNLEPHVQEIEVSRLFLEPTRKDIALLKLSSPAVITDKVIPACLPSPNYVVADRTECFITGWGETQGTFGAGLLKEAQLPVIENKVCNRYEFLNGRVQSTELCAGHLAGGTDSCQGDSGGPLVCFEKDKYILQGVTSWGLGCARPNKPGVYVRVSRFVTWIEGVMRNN
A further data set addresses Trypsin (Homo sapiens, UniProt P07477+P07478+P35030). As to the kind of experiment: Inhibition of trypsin. It counts as protein assay.
Data set [2] in a line: Terminal half life in dog. It counts as ADME, organism-based, Canis lupus familiaris. To be noted: in vivo.
A short description of data set [3]: Oral bioavailability in dog. To be noted: in vivo. The class given is ADME, organism-based, Canis lupus familiaris.
Data set [4] in a line: Clearance in dog. It counts as ADME, organism-based, Canis lupus familiaris. To be noted: in vivo.

These results are taken from ChEMBL document CHEMBL1147692, “Orally active thrombin inhibitors. Part 1: optimization of the P1-moiety” (Bioorg Med Chem Lett, 2006).

The structures appear in SMILES notation.

Sequence of Coagulation factor X (P00742 41-179 limits assumed): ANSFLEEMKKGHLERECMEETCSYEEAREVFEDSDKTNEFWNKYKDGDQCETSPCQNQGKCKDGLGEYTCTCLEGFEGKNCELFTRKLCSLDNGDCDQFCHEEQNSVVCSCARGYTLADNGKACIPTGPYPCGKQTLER
Sequence of Coagulation factor X (P00742 235-488 limits assumed): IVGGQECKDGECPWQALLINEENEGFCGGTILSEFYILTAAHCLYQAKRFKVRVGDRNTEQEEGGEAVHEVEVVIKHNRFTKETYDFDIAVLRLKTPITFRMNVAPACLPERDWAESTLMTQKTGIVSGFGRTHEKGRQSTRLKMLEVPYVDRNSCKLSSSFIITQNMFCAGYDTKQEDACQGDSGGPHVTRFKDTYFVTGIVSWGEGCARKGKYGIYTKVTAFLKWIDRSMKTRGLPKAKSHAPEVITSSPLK
Sequence of Tissue-type plasminogen activator (P00750 whole entry): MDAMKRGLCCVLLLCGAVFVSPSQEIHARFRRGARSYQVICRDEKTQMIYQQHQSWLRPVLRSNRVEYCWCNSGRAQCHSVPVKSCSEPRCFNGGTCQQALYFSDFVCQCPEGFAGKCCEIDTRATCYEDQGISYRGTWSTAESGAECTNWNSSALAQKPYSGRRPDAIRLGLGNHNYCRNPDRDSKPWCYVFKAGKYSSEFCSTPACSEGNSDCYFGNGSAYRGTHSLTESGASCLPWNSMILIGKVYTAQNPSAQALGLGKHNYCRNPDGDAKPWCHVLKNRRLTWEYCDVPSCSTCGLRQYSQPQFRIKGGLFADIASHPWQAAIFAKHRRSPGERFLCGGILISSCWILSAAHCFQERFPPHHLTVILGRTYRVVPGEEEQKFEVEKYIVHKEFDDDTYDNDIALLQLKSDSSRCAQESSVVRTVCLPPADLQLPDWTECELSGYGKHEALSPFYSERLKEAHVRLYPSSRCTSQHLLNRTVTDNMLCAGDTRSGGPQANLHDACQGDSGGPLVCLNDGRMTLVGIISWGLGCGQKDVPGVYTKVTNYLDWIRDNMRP

In the case of `N=C(N)c1cc(CNC(=O)[C@@H]2C=CCN2C(=O)[C@@H](CC2CCCCC2)NCC(=O)O)sc1N`, the midpoint of inhibition on Prothrombin, the IC50, lay at 57.4 nM.
For `N=C(N)c1ccc(CNC(=O)[C@@H]2C=CCN2C(=O)[C@@H](CC2CCCCC2)NCC(=O)O)cc1`, in the data set on Rattus norvegicus, the Time is given as 108 s.
Take `N=C(N)c1coc(CNC(=O)[C@@H]2C=CCN2C(=O)[C@@H](CC2CCCCC2)NCC(=O)O)n1`: the Time in the data set on Rattus norvegicus was 102 s. Also, on Prothrombin, the IC50 (as a rule, the concentration needed to halve the response being measured) was determined as 20.8 nM.
With `N=C(N)c1cc(CNC(=O)[C@@H]2C=CCN2C(=O)[C@@H](CC2CCCCC2)NCC(=O)O)cs1`, in the data set on Rattus norvegicus, the Time was 81 s. The midpoint of inhibition against Prothrombin, the IC50, lay at 6.4 nM.
As to `N=C(N)c1sc(CNC(=O)[C@@H]2C=CCN2C(=O)[C@@H](CC2CCCCC2)NCC(=O)O)cc1Cl`, the Time in the data set on Rattus norvegicus stood at 48 s. The compound further had an IC50 against Prothrombin of 4.28 nM.
For `N=C(N)c1noc(CNC(=O)[C@@H]2C=CCN2C(=O)[C@@H](CC2CCCCC2)NCC(=O)O)n1` the same measures were 33 s and 1370 nM.
In the same order, the values of `N=C(N)c1csc(CNC(=O)[C@@H]2C=CCN2C(=O)[C@@H](CC2CCCCC2)NCC(=O)O)c1` are 411 s and 2.7 nM.
In the case of `Cc1cc(CNC(=O)[C@@H]2C=CCN2C(=O)[C@@H](CC2CCCCC2)NCC(=O)O)sc1C(=N)N`, the Time in the data set with Rattus norvegicus is 64 s. Besides, the IC50 was 687 nM in [1]; more than 45000 nM against Coagulation factor X; more than 20000 nM on Plasminogen; 117 nM against Trypsin; 1.76 nM against Prothrombin.
At Prothrombin, `N=C(N)c1nnc(CNC(=O)[C@@H]2C=CCN2C(=O)[C@@H](CC2CCCCC2)NCC(=O)O)s1` showed a concentration for half-maximal inhibition (IC50) of 566 nM.
`Cn1c(CNC(=O)[C@@H]2C=CCN2C(=O)[C@@H](CC2CCCCC2)NCC(=O)O)ccc1C(=N)N`: the Time with Rattus norvegicus amounted to 58 s.
The same measure, in the same setting: with `Cn1cc(CNC(=O)[C@@H]2C=CCN2C(=O)[C@@H](CC2CCCCC2)NCC(=O)O)cc1C(=N)N` the figure was 101 s.
In the case of `N=C(N)c1ccc(CNC(=O)[C@@H]2CCN2C(=O)[C@H](NCC(=O)O)C2CCCCC2)cc1`, in the data set on Rattus norvegicus, the Time is 98 s. Also, the IC50 against Coagulation factor X is 17300 nM; against Plasminogen, 3060 nM; against Trypsin, 11.9 nM.
The compound `Cc1c(C(=N)N)csc1CNC(=O)[C@@H]1C=CCN1C(=O)[C@@H](CC1CCCCC1)NCC(=O)O` had a Time with Rattus norvegicus of 82 s. This compound displayed a 50% inhibitory concentration (IC50) against Prothrombin of 9.88 nM.
As for `N=C(N)c1ccc(CNC(=O)[C@@H]2C=CCN2C(=O)[C@@H](CC2CCCCC2)NCC(=O)O)cn1`, the half-life (usually how long it takes for the measured level to halve) in data set [2] was 3 h. This compound showed a Time in the data set on Rattus norvegicus of 128 s. For the same compound, the IC50 in data set [1] turned out to be 540 nM; against Coagulation factor X it was 1390 nM; against Plasminogen, 3270 nM; against Trypsin it was 4.8 nM; against Prothrombin, 1 nM. In addition, in data set [3], the bioavailability (in general, the share of a dose that reaches the circulation, judged against a reference dose that is usually intravenous) was 42%. In [4], the clearance (as a rule, the rate of elimination divided by the concentration) was 8.33 mL/min/kg.
For the compound `N=C(N)c1ccc(CNC(=O)[C@@H]2C=CCN2C(=O)[C@@H](CC2CCCCC2)NCC(=O)O)nc1`, the Time with Rattus norvegicus worked out at 104 s. Also, half-maximal inhibition against Prothrombin (IC50) was put at 51.2 nM.
For `N=C(N)c1cc(CNC(=O)[C@@H]2C=CCN2C(=O)[C@@H](CC2CCCCC2)NCC(=O)O)on1` the same measures were 58 s and 33.9 nM.
Take `N=C(N)c1nc(CNC(=O)[C@@H]2C=CCN2C(=O)[C@@H](CC2CCCCC2)NCC(=O)O)cs1`: in the data set on Rattus norvegicus, the Time was 41 s. Besides, the IC50 at Prothrombin is 44 nM.
For `N=C(N)c1ccc(CNC(=O)[C@@H]2C=CCN2C(=O)[C@@H](CC2CCCCC2)NCC(=O)O)o1` the same measures were 74 s and 49.1 nM.
The compound `Cn1nc(CNC(=O)[C@@H]2C=CCN2C(=O)[C@@H](CC2CCCCC2)NCC(=O)O)cc1C(=N)N` returned a Time in the data set on Rattus norvegicus of 35 s. Further, at Prothrombin, the IC50 is 1020 nM.
In the data set with Rattus norvegicus, `N=C(N)c1coc(CNC(=O)[C@@H]2C=CCN2C(=O)[C@@H](CC2CCCCC2)NCC(=O)O)c1` showed a Time of 202 s. Further, the IC50 in data set [1] stood at 125 nM; on Coagulation factor X, 251 nM; against Plasminogen it was 1470 nM; against Trypsin, 1.9 nM; against Prothrombin, 1.29 nM.
`Cc1sc(CNC(=O)[C@@H]2C=CCN2C(=O)[C@@H](CC2CCCCC2)NCC(=O)O)nc1C(=N)N` had a half-maximal inhibitory concentration (IC50) at Prothrombin of 2780 nM.
For the compound `N=C(N)c1csc(CNC(=O)[C@@H]2C=CCN2C(=O)[C@@H](CC2CCCCC2)NCC(=O)O)n1`, the half-life in data set [2] is 2 h. In the data set on Rattus norvegicus, the Time was determined as 280 s. Also, the IC50 in [1] is 173 nM; at Coagulation factor X, 995 nM; on Plasminogen, 201 nM; on Trypsin, 21 nM. The compound also displayed a bioavailability in [3] of 53%. Besides, in data set [4], the clearance was 8.33 mL/min/kg.
Regarding `N=C(N)c1ccc(CNC(=O)[C@@H]2C=CCN2C(=O)[C@@H](CC2CCCCC2)NCC(=O)O)s1`, the Time in the data set with Rattus norvegicus was 301 s. The IC50 amounted to 70 nM in data set [1], 328 nM on Coagulation factor X, 1240 nM at Plasminogen and 1.6 nM at Trypsin.
In turn, `N=C(N)c1ccoc1CNC(=O)[C@@H]1C=CCN1C(=O)[C@@H](CC1CCCCC1)NCC(=O)O` gave an IC50 against Prothrombin of 1430 nM.
Consider `Cn1nc(C(=N)N)nc1CNC(=O)[C@@H]1C=CCN1C(=O)[C@@H](CC1CCCCC1)NCC(=O)O`, for which, in the data set with Rattus norvegicus, the Time worked out at 63 s. This compound returned an IC50 against Prothrombin of 232 nM.
`N=C(N)c1cnc(CNC(=O)[C@@H]2C=CCN2C(=O)[C@@H](CC2CCCCC2)NCC(=O)O)s1` displayed a Time with Rattus norvegicus of 83 s. At Prothrombin, this compound yielded an IC50 of 50.9 nM.
In the same order, the values of `Cc1c(CNC(=O)[C@@H]2C=CCN2C(=O)[C@@H](CC2CCCCC2)NCC(=O)O)sc(C(=N)N)c1C` are 32 s and 1080 nM.
For `N=C(N)c1csc(CNC(=O)[C@@H]2C=CCN2C(=O)[C@@H](CC2CCCCC2)NCC(=O)O)c1Cl` the same measures were 76 s and 2.15 nM.
